Calls of active or inactive are those of the source. The rule behind the calls is not given here.
Experiments:
Mus musculus [1] = experiment: Antinociceptive activity in Kunming mouse model assessed as latency of tail withdrawal at 132.2 nmol/kg, sc measured for 10 mins by tail-flick test relative to control; assay type: functional
Mus musculus [2] = experiment: Antinociceptive activity in Kunming mouse model assessed as latency of tail withdrawal at 132.2 nmol/kg, sc measured for 30 mins by tail-flick test relative to control; assay type: functional; conditions: 0.5 h
Mus musculus [3] = experiment: Antinociceptive activity in Kunming mouse model assessed as latency of tail withdrawal at 132.2 nmol/kg, sc measured for 60 mins by tail-flick test relative to control; assay type: functional; conditions: 1 h
Mus musculus [4] = experiment: Antinociceptive activity in Kunming mouse model assessed as latency of tail withdrawal at 132.2 nmol/kg, sc measured for 120 mins by tail-flick test relative to control; assay type: functional; conditions: 2 h
Mus musculus [5] = experiment: Antinociceptive activity in Kunming mouse model assessed as latency of tail withdrawal at 136.2 nmol/kg, sc measured for 10 mins by tail-flick test relative to control; assay type: functional
Mus musculus [6] = experiment: Antinociceptive activity in Kunming mouse model assessed as latency of tail withdrawal at 136.2 nmol/kg, sc measured for 30 mins by tail-flick test relative to control; assay type: functional; conditions: 0.5 h
Mus musculus [7] = experiment: Antinociceptive activity in Kunming mouse model assessed as latency of tail withdrawal at 136.2 nmol/kg, sc measured for 60 mins by tail-flick test relative to control; assay type: functional; conditions: 1 h
Mus musculus [8] = experiment: Antinociceptive activity in Kunming mouse model assessed as latency of tail withdrawal at 136.2 nmol/kg, sc measured for 120 mins by tail-flick test relative to control; assay type: functional; conditions: 2 h
Mus musculus [9] = experiment: Antinociceptive activity in Kunming mouse model assessed as latency of tail withdrawal at 164.1 nmol/kg, sc measured for 10 mins by tail-flick test relative to control; assay type: functional
Mus musculus [10] = experiment: Antinociceptive activity in Kunming mouse model assessed as latency of tail withdrawal at 164.1 nmol/kg, sc measured for 30 mins by tail-flick test relative to control; assay type: functional; conditions: 0.5 h
Mus musculus [11] = experiment: Antinociceptive activity in Kunming mouse model assessed as latency of tail withdrawal at 164.1 nmol/kg, sc measured for 60 mins by tail-flick test relative to control; assay type: functional; conditions: 1 h
Mus musculus [12] = experiment: Antinociceptive activity in Kunming mouse model assessed as latency of tail withdrawal at 164.1 nmol/kg, sc measured for 120 mins by tail-flick test relative to control; assay type: functional; conditions: 2 h
Mus musculus [13] = experiment: Antinociceptive activity in Kunming mouse model assessed as latency of tail withdrawal at 13882 nmol/kg, sc measured for 10 mins by tail-flick test relative to control; assay type: functional
Mus musculus [14] = experiment: Antinociceptive activity in Kunming mouse model assessed as latency of tail withdrawal at 13882 nmol/kg, sc measured for 30 mins by tail-flick test relative to control; assay type: functional; conditions: 0.5 h
Mus musculus [15] = experiment: Antinociceptive activity in Kunming mouse model assessed as latency of tail withdrawal at 13882 nmol/kg, sc measured for 60 mins by tail-flick test relative to control; assay type: functional; conditions: 1 h
Mus musculus [16] = experiment: Antinociceptive activity in Kunming mouse model assessed as latency of tail withdrawal at 13882 nmol/kg, sc measured for 120 mins by tail-flick test relative to control; assay type: functional; conditions: 2 h
Mu-type opioid receptor [17] = molecular target: T1, Mu-type opioid receptor (Homo sapiens, UniProt P35372); experiment: Agonist activity at human MOR expressed in CHO-K1 cells co-expressing G-alpha15 by calcium mobilization assay; assay type: functional, cell-based
[18] = molecular target: Kappa-type opioid receptor (Homo sapiens, UniProt P41145); experiment: Agonist activity at human KOR expressed in CHO-K1 cells co-expressing G-alpha15 upto 100 uM by calcium mobilization assay; assay type: functional, cell-based
Mu-type opioid receptor [19] = molecular target: T1, Mu-type opioid receptor; experiment: Agonist activity at human MOR expressed in CHO-K1 cells co-expressing G-alpha15 by calcium mobilization assay relative to control; assay type: functional, cell-based; conditions: filed as agonist
Mus musculus [20] = experiment: Antinociceptive activity in Kunming mouse model assessed as latency of tail withdrawal at 134 nmol/kg, sc measured for 10 mins by tail-flick test relative to control; assay type: functional
Mus musculus [21] = experiment: Antinociceptive activity in Kunming mouse model assessed as latency of tail withdrawal at 134 nmol/kg, sc measured for 30 mins by tail-flick test relative to control; assay type: functional; conditions: 0.5 h
Mus musculus [22] = experiment: Antinociceptive activity in Kunming mouse model assessed as latency of tail withdrawal at 134 nmol/kg, sc measured for 60 mins by tail-flick test relative to control; assay type: functional; conditions: 1 h
Mus musculus [23] = experiment: Antinociceptive activity in Kunming mouse model assessed as latency of tail withdrawal at 134 nmol/kg, sc measured for 120 mins by tail-flick test relative to control; assay type: functional; conditions: 2 h
Mus musculus [24] = experiment: Antinociceptive activity in Kunming mouse model assessed as latency of tail withdrawal at 13881 nmol/kg, sc measured for 10 mins by tail-flick test relative to control; assay type: functional
Mus musculus [25] = experiment: Antinociceptive activity in Kunming mouse model assessed as latency of tail withdrawal at 13881 nmol/kg, sc measured for 30 mins by tail-flick test relative to control; assay type: functional; conditions: 0.5 h
Mus musculus [26] = experiment: Antinociceptive activity in Kunming mouse model assessed as latency of tail withdrawal at 13881 nmol/kg, sc measured for 60 mins by tail-flick test relative to control; assay type: functional; conditions: 1 h
Mus musculus [27] = experiment: Antinociceptive activity in Kunming mouse model assessed as latency of tail withdrawal at 13881 nmol/kg, sc measured for 120 mins by tail-flick test relative to control; assay type: functional; conditions: 2 h

T1 sequence (P35372 whole entry): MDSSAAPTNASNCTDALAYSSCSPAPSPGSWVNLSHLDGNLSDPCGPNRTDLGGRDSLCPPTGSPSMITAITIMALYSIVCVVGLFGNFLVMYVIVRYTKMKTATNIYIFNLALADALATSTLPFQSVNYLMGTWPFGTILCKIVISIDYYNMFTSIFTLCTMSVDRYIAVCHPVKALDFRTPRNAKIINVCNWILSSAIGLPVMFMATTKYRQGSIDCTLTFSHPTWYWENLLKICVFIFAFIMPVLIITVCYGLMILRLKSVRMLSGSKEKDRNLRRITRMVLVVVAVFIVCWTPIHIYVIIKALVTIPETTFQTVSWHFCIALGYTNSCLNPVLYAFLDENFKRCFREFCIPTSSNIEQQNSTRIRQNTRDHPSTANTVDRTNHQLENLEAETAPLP
Kappa-type opioid receptor, sequence (P41145 whole entry): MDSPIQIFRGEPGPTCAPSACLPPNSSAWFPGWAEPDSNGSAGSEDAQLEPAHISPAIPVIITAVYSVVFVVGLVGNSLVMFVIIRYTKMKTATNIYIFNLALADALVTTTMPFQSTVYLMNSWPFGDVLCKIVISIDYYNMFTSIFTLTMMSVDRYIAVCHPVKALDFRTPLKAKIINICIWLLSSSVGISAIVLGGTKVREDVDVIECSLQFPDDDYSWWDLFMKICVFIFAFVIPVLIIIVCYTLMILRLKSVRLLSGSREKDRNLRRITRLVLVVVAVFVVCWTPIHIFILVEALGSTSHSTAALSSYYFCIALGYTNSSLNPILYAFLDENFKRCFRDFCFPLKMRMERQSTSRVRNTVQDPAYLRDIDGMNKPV

## NC(=O)[C@H]1CCCN1C(=O)[C@@H]1CC(=O)NCCCC[C@@H](NC(=O)[C@@H](N)Cc2ccc(O)cc2)C(=O)NCC(=O)N[C@@H](Cc2ccc3ccccc3c2)C(=O)N1
Mus musculus [1]
  MPE: 78.1%
Mus musculus [2]
  MPE: 94.8%
Mus musculus [3]
  MPE: 76.9%
Mus musculus [4]
  MPE: 26.8%

## CC1(C)NC(=O)[C@H](NC(=O)[C@@H](N)Cc2ccc(O)cc2)CCCCNC(=O)C[C@@H](C(=O)N2CCC[C@@H]2C(N)=O)NC(=O)[C@H](Cc2ccccc2)NC1=O
Mus musculus [5]
  MPE: 48.9%
Mus musculus [6]
  MPE: 91.1%
Mus musculus [7]
  MPE: 69.3%
Mus musculus [8]
  MPE: 46.1%

## NC(=O)[C@@H]1CC(=O)NCCCC[C@@H](NC(=O)[C@@H](N)Cc2ccc(O)cc2)C(=O)NCC(=O)N[C@@H](Cc2ccccc2)C(=O)N1
Mus musculus [9]
  MPE: 70.7%
Mus musculus [10]
  MPE: 95.4%
Mus musculus [11]
  MPE: 71.9%
Mus musculus [12]
  MPE: 43.8%

## NC(=O)[C@H]1CCCN1C(=O)[C@@H]1CC(=O)NCCCC[C@@H](NC(=O)[C@@H](N)Cc2ccc(O)cc2)C(=O)NCC(=O)N[C@@H](CCc2ccccc2)C(=O)N1
Mus musculus [13]
  MPE: 55%
Mus musculus [14]
  MPE: 96%
Mus musculus [15]
  MPE: 73.7%
Mus musculus [16]
  MPE: 25.6%

## NC(=O)[C@@H]1CCCN1C(=O)[C@H]1CC(=O)NCCCC[C@@H](NC(=O)[C@@H](N)Cc2ccc(O)cc2)C(=O)N2CCC[C@H]2C(=O)N[C@@H](Cc2ccccc2)C(=O)N1
Mu-type opioid receptor [17]
  EC50: 2090 nM
[18]
  Activity: inactive
Mu-type opioid receptor [19]
  Emax: 83.6%
Mus musculus [20]
  MPE: 57.9%
Mus musculus [21]
  MPE: 88%
Mus musculus [22]
  MPE: 84.5%
Mus musculus [23]
  MPE: 46.1%

## CN1CC(=O)N[C@@H](Cc2ccccc2)C(=O)N[C@H](C(=O)N2CCC[C@@H]2C(N)=O)CC(=O)NCCCC[C@@H](NC(=O)[C@@H](N)Cc2ccc(O)cc2)C1=O
Mus musculus [24]
  MPE: 53.2%
Mus musculus [25]
  MPE: 92.7%
Mus musculus [26]
  MPE: 75.7%
Mus musculus [27]
  MPE: 58.7%

From ChEMBL document CHEMBL5532665 (J Med Chem, 2024)
